Measurements: PubChem BioAssay (NCI)
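A five-concentration, 48-hour dose response in 96-well plates underlies each endpoint, interpolated linearly between surrounding concentrations. GI50 is the concentration that inhibits growth by half. TGI: total growth inhibition.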

How the values were obtained:
Experiment in all cases: DTP human tumour cell line panel, 48 h
[1] = system: A498 renal
[2] = system: DU-145 prostate
[3] = system: K-562 leukemia
[4] = system: M14 melanoma
[5] = system: NCI-H522 lung
[6] = system: NCI/ADR-RES ovarian
[7] = system: PC-3 prostate
[8] = system: SR leukemia

SMILES	GI50 [1] [µM]	TGI [1] [µM]	GI50 [2] [µM]	TGI [2] [µM]	GI50 [3] [µM]	TGI [3] [µM]	GI50 [4] [µM]	TGI [4] [µM]	GI50 [5] [nM]	TGI [5] [µM]	GI50 [6] [µM]	TGI [6] [µM]	GI50 [7] [µM]	TGI [7] [µM]	GI50 [8] [nM]	TGI [8] [µM]
CC/C=C\C[C@H](O)C/C=C1/C(=O)C=C[C@@H]1C/C=C\CCCC(=O)OCCS(=O)(=O)c1ccccc1	19.1	35.5	5.24	17.8	3.04	63.8	3.67	13.7	1760	4.13	3.43	20.5	3.83	10.9	2870	13.2
COc1ccc(-c2cc(=O)c3c(OC)c(O)c(OC)cc3o2)cc1		88.5		> 100		> 100		> 100		> 100		> 100				> 100
CS(=O)(=O)c1nccc(-c2c(-c3cccc(OCc4ccccc4)c3)nc3sccn23)n1	13.5	> 89.9	1.76	3.31	5.29	> 100	13.9	> 100	9120	> 100	20.3	> 100	6.35	> 26.8	4490	> 100
O=S1(=O)OCc2ccccc21		> 100		> 100		> 100		> 100		> 100		> 100		> 100		
COc1ccc(-c2cnc(SCC(=O)c3c(C)n(C)n(-c4ccccc4)c3=O)n2-c2ccc(OC)cc2)cc1			9.13	> 50	33.2	> 50	35.2	> 50	> 50000	> 50	> 50	> 50	40.1	> 50		
N#Cc1c(N)n(C2OC(CO)C(O)C2O)c2ncnc(N)c12 (stereo unspecified)				> 17.4		> 20.2		0.265				0.137		0.578		0.0474
CN(C)C(=O)C(NCCO)c1ccccc1 (stereo unspecified)		> 100		> 100				> 100		> 100				> 100		
CN(C)c1ccc(/C=N/NC(=O)CSc2nc3sc4c(c3c(=O)n2-c2ccccc2)CCCCC4)cc1			3.41	> 100			8.26	> 100	3890	> 100	7.85	> 100			3000	> 100
O=C1C2=C(C(=O)c3c(O)ccc(O)c31)N(c1cccnc1)Cc1ccccc1O2	2.37	5.32	0.351	1.17	0.0752		0.26	0.771	28.8	0.112	0.861	> 25.9	0.653	2.03		
COc1ccc(Nc2[nH]n(C3=Nc4ccccc4Sc4ccccc43)c(=O)c2C#N)cc1	1.39	8.01	2.83	61.5			2.49	9.64	400	3.87	1.43	6.64	0.676	> 100	518	> 100
